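A five-concentration, 48-hour dose response in 96-well plates underlies each endpoint, interpolated linearly between surrounding concentrations. TGI denotes the concentration required for complete inhibition of growth.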
What was measured:
Assay in all cases: growth of human tumour cells (NCI), 48 h
T-47D breast = tested on: T-47D breast
HOP-92 NSCLC = tested on: HOP-92 NSCLC
NCI-H522 lung = tested on: NCI-H522 lung
M14 melanoma = tested on: M14 melanoma
U251 CNS = tested on: U251 CNS
CAKI-1 renal = tested on: CAKI-1 renal
KM12 colon = tested on: KM12 colon
MDA-MB-231 breast = tested on: MDA-MB-231 breast
UO-31 renal = tested on: UO-31 renal
CCRF-CEM leukemia = tested on: CCRF-CEM leukemia
SW-620 colon = tested on: SW-620 colon
MOLT-4 leukemia = tested on: MOLT-4 leukemia
A549 NSCLC = tested on: A549 NSCLC
NCI-H23 lung = tested on: NCI-H23 lung
EKVX NSCLC = tested on: EKVX NSCLC
SN12C renal = tested on: SN12C renal
HS 578T breast = tested on: HS 578T breast
SK-OV-3 ovarian = tested on: SK-OV-3 ovarian
HT29 colon = tested on: HT29 colon
786-0 renal = tested on: 786-0 renal
MDA-MB-435 = tested on: MDA-MB-435
SK-MEL-5 melanoma = tested on: SK-MEL-5 melanoma
BT-549 breast = tested on: BT-549 breast
NCI/ADR-RES ovarian = tested on: NCI/ADR-RES ovarian
DU-145 prostate = tested on: DU-145 prostate
HOP-62 NSCLC = tested on: HOP-62 NSCLC
OVCAR-4 ovarian = tested on: OVCAR-4 ovarian
COLO 205 colon = tested on: COLO 205 colon
HCC-2998 colon = tested on: HCC-2998 colon
OVCAR-5 ovarian = tested on: OVCAR-5 ovarian
RXF 393 renal = tested on: RXF 393 renal
HCT-15 colon = tested on: HCT-15 colon
PC-3 prostate = tested on: PC-3 prostate
OVCAR-8 ovarian = tested on: OVCAR-8 ovarian
SF-295 CNS = tested on: SF-295 CNS
SNB-19 CNS = tested on: SNB-19 CNS
SNB-75 CNS = tested on: SNB-75 CNS
NCI-H460 lung = tested on: NCI-H460 lung
A498 renal = tested on: A498 renal
LOX IMVI melanoma = tested on: LOX IMVI melanoma
NCI-H226 lung = tested on: NCI-H226 lung
RPMI-8226 leukemia = tested on: RPMI-8226 leukemia
OVCAR-3 ovarian = tested on: OVCAR-3 ovarian
TK-10 renal = tested on: TK-10 renal
MCF7 breast = tested on: MCF7 breast
SK-MEL-28 melanoma = tested on: SK-MEL-28 melanoma
K-562 leukemia = tested on: K-562 leukemia
HL-60(TB) leukemia = tested on: HL-60(TB) leukemia
UACC-257 melanoma = tested on: UACC-257 melanoma
SR leukemia = tested on: SR leukemia
ACHN renal = tested on: ACHN renal
HCT-116 colon = tested on: HCT-116 colon
UACC-62 melanoma = tested on: UACC-62 melanoma
SF-268 CNS = tested on: SF-268 CNS
IGROV1 ovarian = tested on: IGROV1 ovarian
MALME-3M melanoma = tested on: MALME-3M melanoma
SK-MEL-2 melanoma = tested on: SK-MEL-2 melanoma

COc1ccc(N2C(=O)C3c4[nH]c5ccc(C)cc5c4C4CCC(c5ccccc5)CC4C3C2=O)cc1 (configuration not stated)
TGI (T-47D breast): > 100 µM
TGI (HOP-92 NSCLC): > 90.2 µM
TGI (NCI-H522 lung): > 100 µM
TGI (M14 melanoma): > 100 µM
TGI (U251 CNS): 98.6 µM
TGI (CAKI-1 renal): > 72.5 µM
TGI (KM12 colon): > 100 µM
TGI (MDA-MB-231 breast): > 49.5 µM
TGI (UO-31 renal): > 100 µM
TGI (CCRF-CEM leukemia): > 55.5 µM
TGI (SW-620 colon): > 100 µM
TGI (MOLT-4 leukemia): > 100 µM
TGI (A549 NSCLC): > 100 µM
TGI (NCI-H23 lung): > 100 µM
TGI (EKVX NSCLC): > 100 µM
TGI (SN12C renal): > 100 µM
TGI (HS 578T breast): > 73.4 µM
TGI (SK-OV-3 ovarian): > 100 µM
TGI (HT29 colon): > 100 µM
TGI (786-0 renal): > 62.2 µM
TGI (MDA-MB-435): > 100 µM
TGI (SK-MEL-5 melanoma): > 100 µM
TGI (BT-549 breast): > 100 µM
TGI (NCI/ADR-RES ovarian): > 100 µM
TGI (DU-145 prostate): > 100 µM
TGI (HOP-62 NSCLC): 26.8 µM
TGI (OVCAR-4 ovarian): > 82.3 µM
TGI (COLO 205 colon): > 100 µM
TGI (HCC-2998 colon): > 100 µM
TGI (OVCAR-5 ovarian): > 100 µM
TGI (RXF 393 renal): 41 µM
TGI (HCT-15 colon): > 100 µM
TGI (PC-3 prostate): > 100 µM
TGI (OVCAR-8 ovarian): > 83.9 µM
TGI (SF-295 CNS): > 100 µM
TGI (SNB-19 CNS): > 66.5 µM
TGI (SNB-75 CNS): 12 µM
TGI (NCI-H460 lung): > 100 µM
TGI (A498 renal): > 68.8 µM
TGI (LOX IMVI melanoma): > 100 µM
TGI (NCI-H226 lung): > 100 µM
TGI (RPMI-8226 leukemia): > 100 µM
TGI (OVCAR-3 ovarian): > 100 µM
TGI (TK-10 renal): > 75.3 µM
TGI (MCF7 breast): > 100 µM
TGI (SK-MEL-28 melanoma): > 100 µM
TGI (K-562 leukemia): 98.9 µM
TGI (HL-60(TB) leukemia): > 100 µM
TGI (UACC-257 melanoma): > 100 µM
TGI (SR leukemia): 23.6 µM
TGI (ACHN renal): > 100 µM
TGI (HCT-116 colon): > 100 µM
TGI (UACC-62 melanoma): > 79.5 µM
TGI (SF-268 CNS): > 100 µM
TGI (IGROV1 ovarian): > 100 µM
TGI (MALME-3M melanoma): > 100 µM
TGI (SK-MEL-2 melanoma): > 69.4 µM

From PubChem BioAssay (NCI)
